Measurements as given in PMC8587999, “Assessment of the Activity of Decoquinate and Its Quinoline-O-Carbamate Derivatives against Toxoplasma gondii In Vitro and in Pregnant Mice Infected with T. gondii Oocysts” (Molecules, 2021).
pIC50: −log10 of the molar value. Read-outs that look alike come from different tables or passages of the source.

Experiments:
[1] = tested on: human foreskin fibroblasts (HFF); assay: HFF cytotoxicity assessment; format: cell-based; conditions: for pIC50: Homo sapiens, Fibroblast, uninfected HFF, no decline in viability over the concentration range
Experimental: (§1) HFF cytotoxicity assessments and IC50 determinations using cultures of Tg-β-gal tachyzoites grown in HFF were carried out as described previously. IC50 values were calculated with the logit-log-transformation of the relative growth and subsequent regression analysis was done with the corresponding software tool contained in Microsoft Excel software package (Microsoft, Seattle, WA). For the long-term treatments, HFF grown in T25 culture flasks were infected with 5 × 10^5 TgMe49 tachyzoites, and after 4.5 h 0.5 μM DCQ, RMB054 or RMB060 were added. Infected cultures treated with the highest corresponding concentration of DMSO (0.5%) served as controls. Prolonged treatments for up to 24 days were carried out, with the addition of fresh medium containing the respective drug every 3–4 days. Cultures were inspected by light microscopy on a daily basis. On days 3, 6, 9, 13, 16, 20 and 24, the compound-containing medium was removed, and parasites were maintained without drug pressure until host cell lysis (plaque formation) was evident.

[2] = tested on: BAG1 (bradyzoite antigen 1) expression in T. gondii Me49; assay: Immunofluorescence staining for BAG1 expression in TgMe49-infected HFF; format: cell-based, Toxoplasma gondii; conditions: treatment for 48 h
Experimental: For immunofluorescence microscopy, 4 × 10^4 HFF were grown on glass coverslips for 24 h to form a sub-confluent monolayer and were exposed to 1.2 × 10^5 TgMe49 tachyzoites during 4 h at 37 °C and 5% CO2. The medium was replaced and supplemented with 20 nM DCQ and RMB060, or medium containing DMSO as control. Cultures infected with TgPgSp1 (low passage number) served as positive control for BAG1 (bradyzoite antigen 1) expression. Infected cells were cultured for 16 h, 24 h, and 48 h and fixed and labelled for immunofluorescence staining as described previously. A polyclonal rabbit anti-BAG1 antiserum was applied at 1:200 dilution, followed by a goat-anti-rabbit fluorescein-isothiocyanate conjugate (1:300), the monoclonal mouse anti-TgSAG1 antibody was diluted (1:100), followed by goat anti-mouse conjugated to tetramethylrhodamine-isothiocyanate at 1:300. Subsequently, samples were mounted in H-1200 Vectashield mounting medium (Vector Laboratories, Burlingame, CA, USA) containing 4,6-diamidino-2-phenylindole and were viewed on a Nikon E80i fluorescence microscope (Tokyo, Japan). Processing of images was performed using Openlab 5.5.2 (Improvision, PerkinElmer, Waltham, MA, USA) and the ImageJ software, version 1.53 m.

[3] = tested on: T. gondii β-gal tachyzoites; assay: IC50 determination with T. gondii β-gal tachyzoites grown in HFF monolayers; format: cell-based, Toxoplasma gondii; conditions: for Selectivity Index: HFF vs T. gondii, compound applied prior to / concomitantly with infection; for IC50: Toxoplasma gondii, Tg-β-gal in HFF, [upper, lower limit of 95% CI], read-out: IC50 T. gondii (nM) [LS
Experimental: The efficacy of DCQ in vitro was determined using T. gondii β-gal constitutively expressing β-galactosidase grown in HFF monolayers. […] The low IC50 values and the low degree of cytotoxicity against HFF host cells in vitro encouraged us to examine the efficacy of oral treatment of CD1 mice infected with T. gondii oocysts with DCQ at 10 mg/kg/day for 5 days.
Due to the negative effects of treatment with DCQ, we investigated the efficacy in vitro of the three DCQ derivatives RMB054, RMB055 and RMB060 (Figure 1) in comparison to DCQ. Different concentrations of DCQ and the derivatives in DMSO were added to HFF either concomitantly with infection of T. gondii-β-gal tachyzoites, or 3 h after infection. […] The corresponding dose-response curves are shown in Supplementary Materials Figure S1. The viability of uninfected HFF was not impaired by the compounds up to concentrations of 5 µM (DCQ and RMB054) or 10 µM (RMB055, RMB060) (Table 1).
as §1

[4] = compound added 3 h post-infection, LI] Compound Added 3 h Post-infection
[5] = compound added prior to / concomitantly with infection, LI] Compound Added Prior to Infection

Structure (SMILES) | Concentration up to which viability of uninfected HFF was not impaired [1] [µM] | pIC50 [1] | Expression of the bradyzoite marker BAG1 [2] | Selectivity Index [3] | IC50 [3, 4] [nM] | IC50 [3, 5] [nM]
CCCCCCCCCCOc1cc2c(OC(=O)N3CCN(CC)C(=O)C3=O)c(C(=O)OCCOC)cnc2cc1OCC [RMB054] | 5 | < 5.30 | not clearly detectable | >435 | 11.4 | 11.5
CCCCCCCCCCOc1cc2c(OC(=O)N3CCN(S(C)(=O)=O)C3=O)c(C(=O)OCCOC)cnc2cc1OCC [RMB055] | 10 | < 5.00 |  | >50 | 227 | 200
